Data as given in patent publication US20110306622A1, “METHODS OF TREATING HEMATOLOGICAL DISORDERS WITH QUINAZOLINONE COMPOUNDS IN SELECTED SUBJECTS” (Calitoga Pharmaceuticals, Inc., priority 2010, published 2011).

Legend:
[1] = tested on: CCL17, CCL22, CXCL13 and TNF-alpha levels in MCL patients; assay: Plasma chemokine and TNF-alpha levels and tumor size in MCL patients, pre-treatment vs Day 28; type: in vivo, human
Experimental: (§1) 103 patients were enrolled in the study, including 40 with MCL and 63 with iNHL. Among patients with iNHL, all 4 subtypes were represented. Patients were heavily treated with chemoimmunotherapy. Patients had received a median of 4 prior regimens and some had received as many as 14 prior regimens. Most patients had received several types of chemoimmunotherapy for NHL. Disease was commonly refractory to available therapies.
(§2) Patients were treated over a broad range of doses of Compound A using once-per-day (QD) and twice-per-day (BID) continuous and intermittent schedules. Patients remained on therapy for protracted periods; many patients with iNHL continued on treatment beyond 12 cycles (48 weeks).
(§3) Prior to treatment, the concentration of CCL17, CCL22, CXCL13, and TNF-alpha was evaluated. On the last day of the cycle, the plasma concentration of the chemokines and TNF-alpha was re-assessed. Table 3 (for MCL) and Table 4 (for iNHL) below summarize the chemokine and TNF-alpha concentration at the baseline and at Day 28 of the cycle.

PI3Kγ = target: T1, PI3Kγ (Mus musculus, UniProt Q9JHG7); assay: Isoform specific cell-based assay: C5a induced pAKT in monocyte cell line (RAW-264); settings: n = 11
T1 construct: endogenous in cells; host or cells: RAW-264 monocyte cell line
T1 sequence (Q9JHG7 whole entry, canonical isoform): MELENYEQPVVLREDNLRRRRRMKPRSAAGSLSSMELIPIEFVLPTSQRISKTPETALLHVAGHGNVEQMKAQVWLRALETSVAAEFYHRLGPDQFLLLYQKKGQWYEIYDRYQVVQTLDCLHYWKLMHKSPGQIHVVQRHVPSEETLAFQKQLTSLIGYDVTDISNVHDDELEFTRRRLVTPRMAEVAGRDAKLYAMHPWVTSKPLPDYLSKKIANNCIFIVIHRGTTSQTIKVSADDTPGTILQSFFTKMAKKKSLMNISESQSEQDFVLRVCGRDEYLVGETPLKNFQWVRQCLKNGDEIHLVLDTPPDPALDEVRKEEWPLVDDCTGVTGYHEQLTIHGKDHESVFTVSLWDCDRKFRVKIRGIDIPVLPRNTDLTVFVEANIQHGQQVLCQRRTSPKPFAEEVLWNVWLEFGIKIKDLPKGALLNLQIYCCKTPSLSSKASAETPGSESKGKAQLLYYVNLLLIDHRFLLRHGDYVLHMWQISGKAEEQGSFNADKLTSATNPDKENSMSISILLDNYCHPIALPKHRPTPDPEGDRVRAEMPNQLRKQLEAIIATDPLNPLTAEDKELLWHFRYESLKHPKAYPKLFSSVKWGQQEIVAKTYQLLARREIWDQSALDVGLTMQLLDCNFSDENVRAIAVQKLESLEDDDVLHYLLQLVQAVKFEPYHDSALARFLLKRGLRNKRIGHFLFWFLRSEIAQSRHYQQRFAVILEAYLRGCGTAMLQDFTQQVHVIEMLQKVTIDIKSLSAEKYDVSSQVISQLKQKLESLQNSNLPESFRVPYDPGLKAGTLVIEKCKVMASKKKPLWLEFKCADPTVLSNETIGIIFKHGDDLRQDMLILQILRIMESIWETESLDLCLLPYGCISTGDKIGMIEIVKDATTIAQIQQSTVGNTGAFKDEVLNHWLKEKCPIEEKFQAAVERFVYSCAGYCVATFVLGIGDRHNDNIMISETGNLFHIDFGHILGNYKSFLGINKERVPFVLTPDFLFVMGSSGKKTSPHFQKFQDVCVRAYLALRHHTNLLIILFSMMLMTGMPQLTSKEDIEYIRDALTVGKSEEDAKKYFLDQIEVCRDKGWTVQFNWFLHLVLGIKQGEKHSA
T1 sequence (Q5SW28 whole entry partner, canonical isoform): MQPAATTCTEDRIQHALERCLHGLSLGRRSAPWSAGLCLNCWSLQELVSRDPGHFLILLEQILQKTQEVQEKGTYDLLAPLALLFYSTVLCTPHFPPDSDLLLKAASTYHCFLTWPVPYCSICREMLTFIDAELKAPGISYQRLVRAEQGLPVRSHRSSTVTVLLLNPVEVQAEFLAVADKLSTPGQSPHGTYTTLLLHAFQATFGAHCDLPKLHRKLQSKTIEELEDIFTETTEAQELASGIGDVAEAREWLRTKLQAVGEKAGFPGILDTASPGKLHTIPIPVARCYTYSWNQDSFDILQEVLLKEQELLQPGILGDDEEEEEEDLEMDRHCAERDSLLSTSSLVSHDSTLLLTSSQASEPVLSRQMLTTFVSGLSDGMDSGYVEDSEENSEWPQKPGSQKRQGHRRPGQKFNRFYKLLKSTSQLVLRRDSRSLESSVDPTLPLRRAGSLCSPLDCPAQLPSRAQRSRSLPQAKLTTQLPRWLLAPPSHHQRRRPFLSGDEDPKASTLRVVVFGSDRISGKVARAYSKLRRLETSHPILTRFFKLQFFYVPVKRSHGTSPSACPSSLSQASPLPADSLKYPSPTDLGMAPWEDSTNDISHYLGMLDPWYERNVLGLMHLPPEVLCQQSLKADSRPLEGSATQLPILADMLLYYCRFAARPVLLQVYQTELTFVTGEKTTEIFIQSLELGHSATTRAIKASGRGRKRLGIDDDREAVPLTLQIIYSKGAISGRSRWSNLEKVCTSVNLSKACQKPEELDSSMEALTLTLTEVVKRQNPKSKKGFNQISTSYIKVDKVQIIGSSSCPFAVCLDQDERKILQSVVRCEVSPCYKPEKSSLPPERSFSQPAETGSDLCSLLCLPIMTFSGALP
Experimental: (§4) Swiss-3T3 fibroblasts and RAW-264 were seeded on a 96-well tissue culture plate and allowed to reach at least 90% confluency. […] Akt phosphorylation and total AKT was detected by ELISA. Purified B-cells were treated with either vehicle or serial dilutions of compound I for 30 minutes at room temperature before the addition of purified goat anti-human IgM. Results are expressed as relative [^3H] thymidine incorporation induced by IgM crosslinking.

[2] = tested on: CCL17, CCL22, CXCL13 and TNF-alpha levels in iNHL patients; assay: Plasma chemokine and TNF-alpha levels and tumor size in iNHL patients, pre-treatment vs Day 28; type: in vivo, human
Experimental: as §1, §2, §3

[3] = tested on: CCL3, CCL17 and TNF-alpha in CLL patients; assay: Clinical evaluation in CLL patients: change in plasma CCL3, CCL17 and TNF-alpha compared to decrease in lymph node size; type: in vivo, human; settings: responders = lymph node decreases of 50% or greater, FIG. 10
Experimental: The concentration of CCL3, CCL17 and TNF-alpha were determined in the plasma samples by a bead-based ELISA technology. The resulting plasma concentrations of these factors were compared to decrease in lymph node size. Patients that had lymph node decreases of 50% or greater were designated as “responders” to the drug.

[4] = tested on: BCR-induced secretion of CCL3 and CCL4 by CLL cells; assay: BCR-induced (anti-IgM) secretion of chemokines CCL3 and CCL4 by CLL cells, ELISA of supernatants; type: cell-based; settings: medium with anti-IgM plus compound, 24 hours, anti-IgM alone raised levels roughly 5 to 6 fold
[5] = tested on: CCL3, CCL4 and CXCL13 chemokine levels in CLL patients; assay: Plasma chemokine levels in CLL patients before and after one 28-day cycle of treatment (multiplexed bead suspension arrays); type: in vivo, human
Experimental: Plasma was stored at −70 degrees centigrade. Before analysis, samples were thawed overnight at 4 degrees centigrade and centrifuged at 1,500×g to remove debris. Chemokines were analyzed with commercially available multiplexed bead suspension arrays (MBA, Millipore). MBAs were analyzed using a Luminex 200 instrument and data was organized and analyzed using 3.1 xPONENT software. The plasma concentration of 14 patients with CLL was assessed at pre-dose baseline concentrations. The average plasma concentration of CCL3 (186 pg/mL) and CCL4 (303 pg/mL) at the pre-dose baseline are approximately 5 times higher in these subject compared to normal subjects. The average plasma concentration of CXCL13 (316 pg/mL) at pre-dose baseline was approximately 10 times higher than normal subjects. […] In the first week of dosing across all dose levels evaluated, the concentration of CCL3, CCL4 and CXCL13 were decreased by 2 to 5-fold. On the last day of the cycle, the plasma concentration of the chemokines was reassessed, see FIG. 1.

PI3Kalpha = PI3Kalpha (Mus musculus, UniProt P42337); assay: Isoform specific cell-based assay: PDGF induced pAKT in fibroblast cell line (Swiss-3T3); settings: n = 12
Chain of PI3Kalpha (P42337 whole entry, canonical isoform): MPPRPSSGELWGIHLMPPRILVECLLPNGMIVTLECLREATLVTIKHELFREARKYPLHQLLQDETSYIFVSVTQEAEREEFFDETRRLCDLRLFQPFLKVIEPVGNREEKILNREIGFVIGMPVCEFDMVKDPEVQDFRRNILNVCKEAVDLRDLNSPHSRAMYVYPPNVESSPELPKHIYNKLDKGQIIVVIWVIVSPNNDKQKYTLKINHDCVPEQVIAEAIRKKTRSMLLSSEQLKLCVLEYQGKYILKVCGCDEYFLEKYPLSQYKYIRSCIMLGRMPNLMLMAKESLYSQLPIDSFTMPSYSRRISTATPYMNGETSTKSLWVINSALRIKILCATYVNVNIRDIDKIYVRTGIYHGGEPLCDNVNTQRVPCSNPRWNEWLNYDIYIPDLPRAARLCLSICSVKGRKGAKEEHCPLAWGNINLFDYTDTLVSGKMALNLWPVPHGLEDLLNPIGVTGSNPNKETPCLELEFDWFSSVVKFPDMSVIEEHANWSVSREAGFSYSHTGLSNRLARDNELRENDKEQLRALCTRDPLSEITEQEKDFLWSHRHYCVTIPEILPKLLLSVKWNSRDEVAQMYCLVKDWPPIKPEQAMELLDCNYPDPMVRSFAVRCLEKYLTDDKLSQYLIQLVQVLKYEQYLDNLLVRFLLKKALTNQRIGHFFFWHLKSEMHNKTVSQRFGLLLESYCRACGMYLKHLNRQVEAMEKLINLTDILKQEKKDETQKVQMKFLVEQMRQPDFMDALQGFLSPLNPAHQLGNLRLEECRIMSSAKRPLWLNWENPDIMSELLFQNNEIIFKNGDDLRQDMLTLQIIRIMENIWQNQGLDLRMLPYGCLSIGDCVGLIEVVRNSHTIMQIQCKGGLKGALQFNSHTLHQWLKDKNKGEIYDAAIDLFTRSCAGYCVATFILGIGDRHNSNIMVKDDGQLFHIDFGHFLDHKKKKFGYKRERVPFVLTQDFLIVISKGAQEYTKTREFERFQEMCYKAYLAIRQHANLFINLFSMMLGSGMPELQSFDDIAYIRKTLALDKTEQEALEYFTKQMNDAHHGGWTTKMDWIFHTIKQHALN
Chain of PI3Kalpha (P26450 whole entry partner, canonical isoform): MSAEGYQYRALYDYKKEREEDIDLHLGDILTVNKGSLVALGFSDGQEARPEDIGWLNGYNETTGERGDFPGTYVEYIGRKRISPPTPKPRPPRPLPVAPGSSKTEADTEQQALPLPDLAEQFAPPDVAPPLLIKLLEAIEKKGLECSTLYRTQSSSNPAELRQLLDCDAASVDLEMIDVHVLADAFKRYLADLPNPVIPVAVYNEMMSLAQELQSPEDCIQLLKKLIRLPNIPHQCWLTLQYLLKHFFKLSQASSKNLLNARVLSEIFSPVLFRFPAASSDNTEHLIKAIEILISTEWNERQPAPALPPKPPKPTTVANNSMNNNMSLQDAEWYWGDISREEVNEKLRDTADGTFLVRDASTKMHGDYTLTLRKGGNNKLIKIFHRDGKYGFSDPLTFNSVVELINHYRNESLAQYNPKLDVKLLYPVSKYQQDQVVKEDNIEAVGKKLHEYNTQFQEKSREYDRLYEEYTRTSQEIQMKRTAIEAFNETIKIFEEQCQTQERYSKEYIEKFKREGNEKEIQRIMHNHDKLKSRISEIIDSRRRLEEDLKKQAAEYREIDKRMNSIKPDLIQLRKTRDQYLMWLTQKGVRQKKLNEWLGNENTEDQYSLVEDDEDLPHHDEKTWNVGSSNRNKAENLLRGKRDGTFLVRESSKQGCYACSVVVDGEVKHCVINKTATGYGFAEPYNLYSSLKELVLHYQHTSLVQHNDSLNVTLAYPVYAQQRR
Experimental: as §4

## CC[C@H](Nc1ncnc2[nH]cnc12)c1nc2cccc(F)c2c(=O)n1-c1ccccc1 [Compound A, (S)-2-(1-(9H-purin-6-ylamino)propyl)-5-fluoro-3-phenylquinazolin-4(3H)-one]
[1]; Day 28 (pre-treatment 65)
  TNF-alpha plasma concentration: 37 pg/mL
[1]; Day 28 (pre-treatment 194)
  CCL17 plasma concentration: 60 pg/mL
[1]; Day 28 (pre-treatment 437)
  CXCL13 plasma concentration: 227 pg/mL
[1]; Day 28 (pre-treatment 2593)
  CCL22 plasma concentration: 1286 pg/mL
[1]; Day 28 vs pre-treatment
  % reduction of CCL17: 69%
  % reduction of CCL22: 50%
  % reduction of CXCL13: 48%
  % reduction of TNF-alpha: 43%
[1]; FIG. 4a
  clinical activity (tumor size): reduction in tumor size
PI3Kγ
  EC50: 3.89 µM
[2]; Day 28 (pre-treatment 41)
  TNF-alpha plasma concentration: 19 pg/mL
[2]; Day 28 (pre-treatment 234)
  CCL17 plasma concentration: 88 pg/mL
[2]; Day 28 (pre-treatment 470)
  CXCL13 plasma concentration: 161 pg/mL
[2]; Day 28 (pre-treatment 2602)
  CCL22 plasma concentration: 1166 pg/mL
[2]; Day 28 vs pre-treatment
  % reduction of CCL17: 62%
  % reduction of CCL22: 55%
  % reduction of CXCL13: 66%
  % reduction of TNF-alpha: 54%
[2]; FIG. 4b
  clinical activity (tumor size): reduction in tumor size
[3]
  change from predose to Day 28 of CCL3, CCL17 and TNF-alpha, responders vs non-responders: significantly greater for individuals that responded to the drug than those that did not
[4]
  CCL3 and CCL4 secretion by anti-IgM stimulated CLL cells: effective suppression of chemokine secretion to levels nearing the control values
[5]; 50 to 350 mg BID, 28-day dosing period
  clinical activity (lymphadenopathy): decrease in lymphadenopathy
[5]; Day 28 of cycle 1, 50 to 350 mg BID, average (baseline 186)
  CCL3 plasma concentration: 29 pg/mL
[5]; Day 28 of cycle 1, 50 to 350 mg BID, average (baseline 303)
  CCL4 plasma concentration: 70 pg/mL
[5]; Day 28 of cycle 1, 50 to 350 mg BID, average (baseline 316)
  CXCL13 plasma concentration: 40 pg/mL
[5]; Day 28 vs baseline
  % reduction of CCL3: 84%
  % reduction of CCL4: 77%
  % reduction of CXCL13: 87%
[5]; first week of dosing, across all dose levels evaluated (50 to 350 mg BID)
  decrease of the concentration of CCL3, CCL4 and CXCL13: 2 to 5 fold
PI3Kalpha
  EC50: > 20 µM
